Source: patent US10179123B2, “2-aryl- and 2-arylalkyl-benzimidazoles as mIDH1 inhibitors” (BAYER PHARMA AKTIENGESELLSCHAFT, priority 2015, dated 2019)

Target: IDH1 R132H enzyme (Homo sapiens (Human), UniProt O75874, R132H)
Experiment: Mutant IDH1 R132H biochemical assay
Conditions: NADPH consumption, luminescent readout; 1.5 nM enzyme, 1 μM NADPH, 250 μM α-KG, 30 minutes, 32° C.
Procedure: NADPH consumption was measured by luminescent readout. […] The final DMSO concentration was 2.4%. […] Luminescence was measured on a luminescent reader (10 seconds measuring time, 1 second integration period, 30% sensitivity). The decrease in luminescence is proportional to mIDH1 activity. IC50 values are determined by interpolation from plots of relative luminescence versus inhibitor concentration.

Chain of IDH1 R132H enzyme (O75874 whole entry R132H): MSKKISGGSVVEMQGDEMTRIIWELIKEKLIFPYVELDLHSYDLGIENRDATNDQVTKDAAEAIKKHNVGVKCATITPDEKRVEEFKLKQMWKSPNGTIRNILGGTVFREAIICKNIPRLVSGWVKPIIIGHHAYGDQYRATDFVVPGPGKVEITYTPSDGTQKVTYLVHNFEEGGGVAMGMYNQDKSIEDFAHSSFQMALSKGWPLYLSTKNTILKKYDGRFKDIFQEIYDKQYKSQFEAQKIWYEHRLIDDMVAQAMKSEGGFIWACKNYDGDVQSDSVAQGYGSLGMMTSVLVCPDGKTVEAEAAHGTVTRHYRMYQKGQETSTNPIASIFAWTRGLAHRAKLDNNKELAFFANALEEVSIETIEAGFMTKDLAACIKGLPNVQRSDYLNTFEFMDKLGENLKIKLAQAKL

| Structure (SMILES) | IC50 |
| --- | --- |
| COC(=O)c1ccc2c(c1)nc(-c1ccc(OC(F)(F)F)cc1)n2[C@H]1C[C@@H](C)CC(C)(C)C1 (single isomer, unassigned) [Example 2-1-1, methyl 2-[4-(trifluoromethoxy)phenyl]-1-[(cis)-3,3,5-trimethylcyclohexyl]-1H-benzimidazole-5-carboxylate] | 1000 nM |
| COC(=O)c1ccc2c(c1)nc(Cc1ccc(OC(F)(F)F)cc1)n2[C@H]1C[C@@H](C)CC(C)(C)C1 (single isomer, unassigned) [Example 2-3-1, methyl 2-[4-(trifluoromethoxy)benzyl]-1-[(cis)-3,3,5-trimethylcyclohexyl]-1H-benzimidazole-5-carboxylate] | 1700 nM |
| COC(=O)c1cc2nc(Cc3ccc(OC(F)(F)F)cc3)n([C@H]3C[C@@H](C)CC(C)(C)C3)c2cc1OC(C)C (single isomer, unassigned) [Example 2-20-2, methyl 6-(propan-2-yloxy)-2-[4-(trifluoromethoxy)benzyl]-1-[(cis)-3,3,5-trimethylcyclohexyl]-1H-benzimidazole-5-carboxylate] | 3300 nM |
| C[C@H]1C[C@@H](n2c(Cc3cccc(OC(F)(F)F)c3)nc3cc(C(=O)O)ccc32)CC(C)(C)C1 (stereo in doubt) [Example 2-40] | 1800 nM |
| Cc1[nH]c2ccc(F)cc2c1Cc1nc2cc(C(=O)O)ccc2n1[C@@H]1C[C@H](C)CC(C)(C)C1 (stereo in doubt) [Example 2-42] | 7000 nM |
| COC(=O)c1ccc2c(c1)nc(Cc1ccc(C(C)(C)C)cc1)n2[C@H]1C[C@@H](C)CC(C)(C)C1 (racemic) [Example 2-11, (±) methyl 2-(4-tert-butylbenzyl)-1-[(cis)-3,3,5-trimethylcyclohexyl]-1H-benzimidazole-5-carboxylate] | 1400 nM |
| COC(=O)c1ccc2c(c1)nc(C(C)c1ccc(OC(F)(F)F)cc1)n2[C@H]1C[C@@H](C)CC(C)(C)C1 (single isomer, unassigned) [Reference compound 2-4-1, methyl 2-{1-[4-(trifluoromethoxy)phenyl]ethyl}-1-[(cis)-3,3,5-trimethylcyclohexyl]-1H-benzimidazole-5-carboxylate, reference compound] | > 10000 nM |
| C[C@H]1C[C@@H](n2c(Cc3ccc(OC(F)(F)F)cc3)nc3cc(C(=O)O)c(OCC(F)(F)F)cc32)CC(C)(C)C1 (stereo in doubt) [Example 2-47] | 1000 nM |
| COC(=O)c1cc2nc(Cc3ccc(OC(F)(F)F)cc3)n([C@H]3C[C@@H](C)CC(C)(C)C3)c2cc1OC(C)C (single isomer, unassigned) [Example 2-20-1, methyl 6-(propan-2-yloxy)-2-[4-(trifluoromethoxy)benzyl]-1-[(cis)-3,3,5-trimethylcyclohexyl]-1H-benzimidazole-5-carboxylate] | 1300 nM |
| CC(C)Oc1ccc(Cc2nc3cc(C(=O)O)ccc3n2[C@@H]2C[C@H](C)CC(C)(C)C2)cc1 (stereo in doubt) [Example 2-32-1] | 450 nM |
| C[C@H]1C[C@@H](n2c(Cc3ccccc3)nc3cc(C(=O)O)ccc32)CC(C)(C)C1 (stereo in doubt) [Example 2-38] | 2400 nM |
| C[C@H]1C[C@@H](n2c(Cc3ccccc3OC(F)(F)F)nc3cc(C(=O)O)ccc32)CC(C)(C)C1 (stereo in doubt) [Example 2-39] | 5000 nM |
| COC(=O)c1ccc2c(c1)nc(Cc1ccc(OC(F)(F)F)cc1)n2[C@H]1C[C@@H](C)CC(C)(C)C1 (single isomer, unassigned) [Example 2-3-2, methyl 2-[4-(trifluoromethoxy)benzyl]-1-[(cis)-3,3,5-trimethylcyclohexyl]-1H-benzimidazole-5-carboxylate] | 610 nM |
| COC(=O)c1ccc2c(c1)nc(Cc1ccc(F)cc1)n2[C@H]1C[C@@H](C)CC(C)(C)C1 (racemic) [Example 2-9, (±) methyl 2-(4-fluorobenzyl)-1-[(cis)-3,3,5-trimethylcyclohexyl]-1H-benzimidazole-5-carboxylate] | 4200 nM |
